Where two headings read alike, the source gives them in different places.
Tests used:
[1] = test system: pigmented reconstructed epidermis; test: Test on pigmented reconstructed epidermis samples (melanin quantified by image analysis); type: cell-based, human; conditions: pValue<0.05, control DMSO
Procedure: […] EP 1 878 790). The control is DMSO. The melanin was quantified by image analysis on histological slices after staining with Fontana Masson dye. Each sample of coloured epidermis is photographed over its entire length using a camera connected to a microscope. The melanin is thresholded and the number of melanin pixels is measured in each field using automated image analysis software. A non-parametric statistical test is performed in order to determine the significance of the measurements (Mann-Whitney test).
The pigmented reconstructed epidermis standard study model was published by:
Regnier M, Duval C, Galey J B, Philippe M, Lagrange A, Tuloup R, Schmidt R, Cellular and Molecular Biology, 1999, 45, 7, 969-980: “Keratinocyte-Melanocyte co-cultures and pigmented reconstructed human epidermis: models to study modulation of melanogenesis”.

normal human melanocytes = test: Depigmenting activity (reduction of melanin production) in normal human melanocytes in vitro; type: cell-based; conditions: Melanocyte, read-out: IC50 (concentration at which 50% decrease in melanin synthesis is achieved)
Procedure: The measurement of the depigmenting activity (reduction of melanin production) of compounds of formula (I) was carried out by assaying normal human melanocytes in vitro as follows.
First of all, normal human melanocytes are cultured and dispensed into 384 wells. After 24 hours, the culture medium was replaced with a medium containing compounds of formula (I) to be evaluated. The cells were incubated for 72 hours before measuring the final optical density, which measures the amount of melanin produced by the melanocytes. A dose-effect is performed using a wide concentration range of the compounds evaluated. Thus, by making the concentrations and the melanin measurements correspond, it is possible to determine an IC50 in μM: concentration at which 50% decrease in melanin synthesis is achieved. The highest concentration used in the test is 200 μM.

[2] = normal human melanocytes, 72 hours incubation, optical density, highest concentration 200 μM
[3] = Homo sapiens, another campaign, comparison with closest prior art compound of FR 2 968 661

SMILES | depigmenting activity (melanin quantification, Mann-Whitney test) ([1]; at 100 μM) | IC50 (normal human melanocytes; [2]) [µM] | IC50 (normal human melanocytes; [3]) [µM] | depigmenting activity (melanin quantification, Mann-Whitney test) ([1]; at 300 μM)
CN(CC(=O)O)C(=O)c1ccc[nH]c1=S [Compound 2, N-methyl-N-[(2-thioxo-1,2-dihydropyridin-3-yl)carbonyl]glycine] | Significant depigmenting activity | 5.27 |  | 
CCOC(=O)C(C)NC(=O)c1ccc[nH]c1=S (stereo not shown) [reference compound] |  |  | 37.4 | 
CCOC(=O)CN(C)C(=O)c1ccc[nH]c1=S [Compound 4, Ethyl N-methyl-N-[(2-thioxo-1,2-dihydropyridin-3-yl)carbonyl]glycinate] |  | 67.6 |  | Significant depigmenting activity
O=C(O)CNC(=O)c1ccc[nH]c1=S [Compound 1, N-[(2-thioxo-1,2-dihydropyridin-3-yl)carbonyl]glycine] | Significant depigmenting activity | 11.4 |  | 
CCOC(=O)CNC(=O)c1ccc[nH]c1=S [Compound 3, Ethyl N-[(2-thioxo-1,2-dihydropyridin-3-yl)carbonyl]glycinate] |  | 36.8 | 20.8 | Significant depigmenting activity

— patent publication US20190380937A1, “PROCESS FOR DEPIGMENTING KERATIN MATERIALS USING THIOPYRIDINONE COMPOUNDS” (L'OREAL, priority 2015, published 2019)
